In article PMC7261199 (Chemistry (Weinheim an der Bergstrasse, Germany), 2020) one finds Ki data, which are given here for two substances.

For the assay, the target named is prostate-specific membrane antigen (PSMA) (Homo sapiens, UniProt Q04609). As to the kind of experiment: radioligand displacement of […]mTc-MIP-1427 in PSMA-expressing PC-3 PiP cells. In kind it is cell-based.

One may read the Ki as a dissociation constant, usually derived from enzyme kinetics or from competition with a known ligand. The low end stands for higher affinity, the high end for lower affinity.

Chain of prostate-specific membrane antigen (PSMA) (Q04609 whole entry): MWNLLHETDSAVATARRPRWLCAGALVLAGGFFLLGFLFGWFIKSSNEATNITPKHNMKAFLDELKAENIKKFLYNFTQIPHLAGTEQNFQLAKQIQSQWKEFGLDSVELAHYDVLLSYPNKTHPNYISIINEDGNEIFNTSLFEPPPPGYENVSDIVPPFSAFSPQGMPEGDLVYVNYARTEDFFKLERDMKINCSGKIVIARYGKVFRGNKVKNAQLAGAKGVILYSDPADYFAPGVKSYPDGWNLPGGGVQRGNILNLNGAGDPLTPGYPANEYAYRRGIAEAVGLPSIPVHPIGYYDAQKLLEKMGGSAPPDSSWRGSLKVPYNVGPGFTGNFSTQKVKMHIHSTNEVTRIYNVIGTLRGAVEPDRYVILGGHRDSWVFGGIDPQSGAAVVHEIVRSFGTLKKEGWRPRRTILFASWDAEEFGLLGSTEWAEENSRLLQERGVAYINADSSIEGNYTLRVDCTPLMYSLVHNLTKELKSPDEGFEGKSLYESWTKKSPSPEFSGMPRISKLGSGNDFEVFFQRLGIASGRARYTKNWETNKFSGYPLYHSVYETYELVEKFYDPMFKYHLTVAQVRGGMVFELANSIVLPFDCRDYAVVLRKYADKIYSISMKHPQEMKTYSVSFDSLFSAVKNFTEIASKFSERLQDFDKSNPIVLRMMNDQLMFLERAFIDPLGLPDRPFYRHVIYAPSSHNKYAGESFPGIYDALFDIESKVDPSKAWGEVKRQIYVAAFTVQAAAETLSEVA

On to La(DO2Apic)-DUPA, for which the Ki turned out to be 12 ± 3 nM.
Next, La(macropa)-DUPA: 17 ± 2 nM.
